Results published in US20180353461A1, “USE OF CANNABINOIDS AS CERAMIDE-GENERATING ANTICANCER AGENTS IN TUMORS OF THE HEMATOPOIETIC AND LYMPHOID TISSUES” (priority 2014, published 2018).

Assays:
[1] = tested on: KG1 (acute myelogenous leukemia) and HL60 (Human promyelocytic leukemia cells) cell lines; assay: Cell viability of AML cell lines (MTT / WST-1 assay); format: cell-based; settings: for cell viability of KG1 and HL60 cell lines as compared to untreated control cells: WIN-55 0.5-50 uM, JWH-133 0.05-1 mM; for concentration from which the cell viability decrease occurs with statistically significant data: FIG. 12 / FIG. 13
Procedure: Human acute myeloid leukemia cell line KG-1 and human acute promyelocytic leukemia cell line HL60 (American Type Culture Collection) were cultured RPMI 1640 medium (Gibco™, Invitrogen, Barcelona, Spain) with 2 mM L-glutamine, 100 IU/m1 penicillin and 100 ug/ml streptomycin (all from Sigma-Aldrich, St. Louis, Mo., USA), and supplemented with 10% (HL60 cell line) or 20% (KG1 cell line and human primary cells) fetal bovine serum [(FBS), [Thermo Fisher Scientific (Waltham, Mass., USA)] in a humidified atmosphere of CO2/air (5%/95%).
The cannabinoid agonists WIN-55,212-2 mesylate ((R)-(+)-[2,3-dihydro-5-methyl-3-(4-morpholinylmethyl)-pyrrolo-[1,2,3]-1,4-benzoxazin-6-yl]-1-naphthalenylmethanone mesylate) and JWH-133 ((6aR,10aR)-3-(1,1-Dimethylbutyl)-6a,7,10,10a-tetrahydro-6,6,9-trimethyl-6H-dibenzo [b,d] pyran) were purchased from Tocris Bioscience (Bristol, UK) and they was added in the indicated concentrations to culture medium for different incubation periods. Control cells were cultured with the relevant amounts of DMSO.
(§1) Cells lines, CD34+ cells and blast were cultured in 96-well plates (5×10e5 cells per well) with the addition of the indicated concentrations of WIN 55,212-2 or JWH-133 in DMSO or with the solvent alone in triplicate. Also we add myoricin together the cannabinoid WIN-55 to see if this effect reversed. Cell viability was determined by the WST-1 [2-(4-lodophenyl)-3-(4-nitrophenyl)-5-(2,4-disulfophenyl)-2H-tetrazolium] assay as per the manufacturer's instructions (Dojindo Molecular Technologies). Optical densities were measured at 450 nm using a plate reader Multiskan™ Go Microplate (Thermo Fisher Scientific, Waltham, Mass., USA).
Firstly, we assessed the effect of cannabinoids WIN-55 and JWH-133 on cell viability. To this end, the cells were treated with increasing concentrations of cannabinoids, WIN-55 (0.5-50 uM) and JWH-133 (0.05-1 mM), for 18 and 48, and viability was analyzed by MTT assays.

[2] = tested on: Granulocytes; assay: Viability of normal residual granulocytes in bone marrow samples of MM patients (flow cytometry); format: cell-based, human; settings: all doses tested
Description: (§2) Human multiple myeloma cell lines MM1.S, MM1.R, RPMI-8226 (RPMI) and U266 were purchased from American Type Culture Collection [(ATCC), LGC Standards, Manassas, USA]. Human primary cells were obtained from MM patients' bone marrow (BM) and healthy donors' peripheral blood (PB). PB samples were collected from buffy coats and leukapheresis products, previously mobilized with granulocyte colony stimulating factor (G-CSF). Hematopoietic progenitor cells (CD34+) were isolated from leukaphesesis samples, and B (CD19+) and T (CD3+) lymphocytes from buffy coats by positive immunomagnetic separation in the AutoMACS pro separator (Miltenyi Biotec, Bergisch Gladbach, Germany). For this purpose CD34-, CD19- and CD3-MACS microbead Human Kit (Miltenyi Biotec, Bergisch Gladbach, Germany). The purity of all isolated cells was higher than 95% in all cases. […]
(§3) Further, cell viability of bone marrow cell populations from patients was assessed by flow cytometry using 7-amino-actinomycin D [(7-AAD), BD Biosciences] together with a combination of monoclonal antibodies against myeloma-associated antigens (anti-CD56-APC, anti-CD45-Pacific Blue, and anti-CD38-APC-H7 [BD Biosciences]) and antibodies to discriminate the granulomonocytic (anti-CD64-FITC) and lymphocytic (anti-CD45-Pacific Blue) populations. […] Fluorescent intensity was quantified and analyzed using Infinicyt™ Software (Cytognos, Salamanca, Spain). […]

[3] = tested on: CD34+ hematopoietic stem cells; assay: Cell viability of CD34+ hematopoietic stem cells, Example 2 (MTT); format: cell-based, human
Description: Human primary cells were obtained from LMA patients' bone marrow (BM) and healthy donors' peripheral blood (PB). Hematopoietic progenitor cells (CD34+) were isolated from leukaphesesis samples, and B (CD19+) and T (CD3+) lymphocytes from buffy coats by positive immunomagnetic separation in the AutoMACS pro separator (Miltenyi Biotec, Bergisch Gladbach, Germany). For this purpose CD34-, CD19- and CD3-MACS microbead Human Kit (Miltenyi Biotec, Bergisch Gladbach, Germany).
as §1
Stem cells were treated with WIN-55 or JWH-133 and cell viability was analyzed using MTT assay.

[4] = tested on: myeloma plasma cells (MPCs); assay: Ex vivo viability of myeloma plasma cells from bone marrow of MM patients (flow cytometry, 7-AAD); format: cell-based, human
Description: as §2, §3

[5] = tested on: hematopoietic stem cells (CD34+); assay: Cell viability of CD34+ hematopoietic stem cells from healthy donors (MTT); format: cell-based, human; settings: any tested dose

| SMILES | cell viability of KG1 and HL60 cell lines as compared to untreated control cells ([1]; 18 h) | concentration from which the cell viability decrease occurs with statistically significant data [1] [µM] | viability of granulocytes [2] | cell viability of CD34+ hematopoietic stem cells [3] | viability of MPCs ([4]; less pronounced as compared to WIN-55) | cell viability of hematopoietic stem cells (CD34+) [5] | most sensitive AML cell line ([1]; 18 h) | decrease in cell viability of MPCs as compared to control (vehicle-treated) cells ([4]; 50 uM, bone marrow of MM patients) |
| --- | --- | --- | --- | --- | --- | --- | --- | --- |
| CCCC(C)(C)c1ccc2c(c1)OC(C)(C)[C@@H]1CC=C(C)C[C@@H]21 [JWH-133, (6aR,10aR)-3-(1,1-Dimethylbutyl)-6a,7,10,10a-tetrahydro-6,6,9-trimethyl-6H-dibenzo [b,d] pyran] | significantly reduced | ≥ 500 | unaffected | remains unaffected | decreased viability | remained unaffected |  |  |
| CS(=O)(=O)O.Cc1c(C(=O)c2cccc3ccccc23)c2cccc3c2n1[C@H](CN1CCOCC1)CO3 [WIN-55, (R)-(+)-[2,3-dihydro-5-methyl-3-(4-morpholinylmethyl)-pyrrolo-[1,2,3]-1,4-benzoxazin-6-yl]-1-naphthalenylmethanone mesylate] | significantly reduced | ≥ 500 | unaffected | remains unaffected |  | remained unaffected | HL60 was the most sensitive | up to 85% |
